Assay results from publication PMC8286840, “Identifying SARS-CoV-2 antiviral compounds by screening for small molecule inhibitors of Nsp3 papain-like protease” (Biochemical Journal, 2021).
Structures can show the parent of a compound that is named as a salt. Where two headings read alike, the source gives them in different places.

How the values were obtained:
[1] = molecular target: T1, SARS-CoV-2 PLpro (nsp3 1564–1878) (Severe acute respiratory syndrome coronavirus 2, UniProt P0DTD1); test: biochemical; design: FRET-quenched peptide (Pro3) cleavage by PLpro, 10 min pre-incubation, slope over 20 min, normalised to no-compound control; conditions: low concentration screen, read-out: % of control remaining
[2] = molecular target: T1, SARS-CoV-2 PLpro (nsp3 1564–1878); test: biochemical; design: FRET-quenched peptide (Pro3) cleavage by PLpro, 10 min pre-incubation, slope over 20 min, normalised to no-compound control; conditions: high concentration screen, read-out: % of control remaining

## COc1cc(OCc2cccc(-c3ccccc3)c2C)cc(OC)c1CN1CCCC[C@H]1C(=O)O [BMS-1]
[1]; Well no.=7780
  remaining activity at 1.25 µM: 98.8%
[1]; Well no.=8163
  remaining activity at 1.25 µM: 105%
[2]; Well no.=7780
  remaining activity at 3.75 µM: 96.2%
[2]; Well no.=8163
  remaining activity at 3.75 µM: 100%

## O=C(Nc1ncc(-c2cc(C(F)F)nn2-c2c(Cl)cccc2Cl)s1)C1CC1 [BMS-3]
[1]; Well no.=3039
  remaining activity at 1.25 µM: 95.8%
[2]; Well no.=3039
  remaining activity at 3.75 µM: 96.4%

## CC(C)C(=O)Nc1ncc(-c2cc(C(F)F)nn2-c2c(Cl)cccc2Cl)s1 [BMS-5]
[1]; Well no.=2705
  remaining activity at 1.25 µM: 100%
[2]; Well no.=2705
  remaining activity at 3.75 µM: 96.9%

## COc1nc(OCc2cccc(-c3ccccc3)c2C)ccc1CNCCNC(C)=O [BMS-202]
[1]; Well no.=8469
  remaining activity at 1.25 µM: 100%
[1]; Well no.=8694
  remaining activity at 1.25 µM: 96.5%
[2]; Well no.=8469
  remaining activity at 3.75 µM: 95.5%
[2]; Well no.=8694
  remaining activity at 3.75 µM: 93.7%

## Cc1c(COc2cc(OCc3cccc(C#N)c3)c(CN3C[C@H](O)C[C@@H]3C(=O)O)cc2Cl)cccc1-c1ccc2c(c1)OCCO2 [BMS-1166]
[1]; Well no.=8310
  remaining activity at 1.25 µM: 96.7%
[2]; Well no.=8310
  remaining activity at 3.75 µM: 96.4%

## CC1(C)CC=C(c2cnc3ccccc3c2)c2cc(C(=O)Nc3ccc(C(=O)O)cc3)ccc21 [BMS-195614]
[1]; Well no.=5458
  remaining activity at 1.25 µM: 98.2%
[2]; Well no.=5458
  remaining activity at 3.75 µM: 103%

## CCCCOc1c(C(=O)c2c(F)cc(C)cc2F)c[nH]c2nncc1-2 [BMS-265246]
[1]; Well no.=5010
  remaining activity at 1.25 µM: 95.8%
[2]; Well no.=5010
  remaining activity at 3.75 µM: 96.6%

## COc1ccnc2[nH]cc(C(=O)C(=O)N3CCN(C(=O)c4ccccc4)C[C@H]3C)c12 [BMS-378806]
[1]; Well no.=8420
  remaining activity at 1.25 µM: 96.7%
[2]; Well no.=8420
  remaining activity at 3.75 µM: 94.2%

## Cn1c(N2CCCCS2(=O)=O)nc(C(=O)NCc2ccc(F)cc2)c(O)c1=O [BMS-707035]
[1]; Well no.=5193
  remaining activity at 1.25 µM: 105%
[2]; Well no.=5193
  remaining activity at 3.75 µM: 106%

## CC(=O)N[C@@H]1C[C@H](NC(C)(C)C)CC[C@@H]1N1CC[C@H](Nc2ncnc3cc(C(C)(C)C)nn23)C1=O [BMS-813160]
[1]; Well no.=8217
  remaining activity at 1.25 µM: 103%
[2]; Well no.=8217
  remaining activity at 3.75 µM: 100%

## COc1ccccc1N1CCN(CCN2C(=O)CC3(CCCC3)CC2=O)CC1 [BMY 7378 dihydrochloride]
[1]; Well no.=229
  remaining activity at 1.25 µM: 98.4%
[2]; Well no.=229
  remaining activity at 3.75 µM: 100%

## COc1ccccc1N1CCN(CCN2C(=O)CC3(CCCC3)CC2=O)CC1 [BMY 7378]
[1]; Well no.=5346
  remaining activity at 1.25 µM: 91.4%
[2]; Well no.=5346
  remaining activity at 3.75 µM: 88.7%

## CCCc1cc(=O)oc2c(C(=O)N3CCCc4ccccc43)c(OC)cc(OC)c12 [BNS-22]
[1]; Well no.=5907
  remaining activity at 1.25 µM: 101%
[2]; Well no.=5907
  remaining activity at 3.75 µM: 98.7%

## COC(=O)CC(NC(=O)OC(C)(C)C)C(=O)CF [BOC-D-FMK]
[1]; Well no.=6868
  remaining activity at 1.25 µM: 95.7%
[1]; Well no.=7644
  remaining activity at 1.25 µM: 101%
[2]; Well no.=6868
  remaining activity at 3.75 µM: 93.9%
[2]; Well no.=7644
  remaining activity at 3.75 µM: 95.4%

## COc1ccccc1N1CCN(CCCCNC(=O)c2ccc3ccccc3c2)CC1 [BP897]
[1]; Well no.=6013
  remaining activity at 1.25 µM: 106%
[2]; Well no.=6013
  remaining activity at 3.75 µM: 98.6%

## COc1ccccc1N1CCN(CCCCNC(=O)c2ccc3ccccc3c2)CC1 [BP 897]
[1]; Well no.=35
  remaining activity at 1.25 µM: 95.8%
[2]; Well no.=35
  remaining activity at 3.75 µM: 93.4%

## Cn1cnc2cc3c(Nc4cccc(Br)c4)ncnc3cc21 [BPIQ-I]
[1]; Well no.=2357
  remaining activity at 1.25 µM: 101%
[2]; Well no.=2357
  remaining activity at 3.75 µM: 99%

## CCCC[C@@H](NC(=O)[C@@H](Cc1cn(C(=O)OC)c2ccccc12)NC(=O)[C@H](CC(C)(C)C)NC(=O)N1[C@H](C)CCC[C@@H]1C)C(=O)O [BQ-788 (sodium salt)]
[1]; Well no.=8560
  remaining activity at 1.25 µM: 108%
[2]; Well no.=8560
  remaining activity at 3.75 µM: 101%

## Cc1nn(C)c2c1C(c1ccc(C(F)(F)F)cc1)C(C#N)=C(N)O2 (stereo not drawn) [BQU57]
[1]; Well no.=7957
  remaining activity at 1.25 µM: 103%
[2]; Well no.=7957
  remaining activity at 3.75 µM: 94.7%

## COC(=O)c1ccc2c(c1)nc(NC(=O)c1ccccc1)n2CCCc1ccccc1 [BRD4770]
[1]; Well no.=5781
  remaining activity at 1.25 µM: 97%
[2]; Well no.=5781
  remaining activity at 3.75 µM: 96.3%

## COc1ccc(Nc2nc(N)nc(CN3CCCCC3)n2)cc1 [BRD32048]
[1]; Well no.=5572
  remaining activity at 1.25 µM: 91.7%
[2]; Well no.=5572
  remaining activity at 3.75 µM: 98.9%

## O=C(NO)c1cccc(C(=O)NCCc2ccccc2)c1 [BRD73954]
[1]; Well no.=5588
  remaining activity at 1.25 µM: 99.7%
[2]; Well no.=5588
  remaining activity at 3.75 µM: 92.7%

## OC(CN1CCN(c2cccc(Cl)c2)CC1)C(c1ccccc1)c1ccccc1 (stereo not drawn) [BRL 15572]
[1]; Well no.=131
  remaining activity at 1.25 µM: 95.9%
[2]; Well no.=131
  remaining activity at 3.75 µM: 98.1%

## CN1CCC(c2c[nH]c3ccc(O)cc23)CC1 [BRL 54443 maleate]
[1]; Well no.=231
  remaining activity at 1.25 µM: 101%
[2]; Well no.=231
  remaining activity at 3.75 µM: 101%

## CN1CCC(c2c[nH]c3ccc(O)cc23)CC1 [BRL 54443]
[1]; Well no.=5171
  remaining activity at 1.25 µM: 98%
[1]; Well no.=6945
  remaining activity at 1.25 µM: 103%
[2]; Well no.=5171
  remaining activity at 3.75 µM: 89.8%
[2]; Well no.=6945
  remaining activity at 3.75 µM: 93.5%

## OC(CN1CCN(c2cccc(Cl)c2)CC1)C(c1ccccc1)c1ccccc1 (stereo not drawn) [BRL-15572]
[1]; Well no.=5336
  remaining activity at 1.25 µM: 94.9%
[2]; Well no.=5336
  remaining activity at 3.75 µM: 94.2%

## O=C(Oc1cc(S(=O)(=O)c2ccccc2)ccc1[N+](=O)[O-])c1ccc(Cl)cc1 [BTB06584]
[1]; Well no.=5965
  remaining activity at 1.25 µM: 102%
[2]; Well no.=5965
  remaining activity at 3.75 µM: 102%

## c1ccc2sc(C3(N4CCCCC4)CCCCC3)cc2c1 [BTCP hydrochloride]
[1]; Well no.=325
  remaining activity at 1.25 µM: 101%
[2]; Well no.=325
  remaining activity at 3.75 µM: 96.6%

## CCN1C(=O)/C(=C/c2ccccc2)SC1=S [BTR-1]
[1]; Well no.=7124
  remaining activity at 1.25 µM: 99.8%
[2]; Well no.=7124
  remaining activity at 3.75 µM: 95.2%

## c1ccc2nc(C3=NCCN3)ccc2c1 [BU224 hydrochloride]
[1]; Well no.=39
  remaining activity at 1.25 µM: 102%
[2]; Well no.=39
  remaining activity at 3.75 µM: 105%

## C=CC[N+](C)(C)c1ccc(CCC(=O)CCc2ccc([N+](C)(C)CC=C)cc2)cc1 [BW 284c51]
[1]; Well no.=152
  remaining activity at 1.25 µM: 98.6%
[2]; Well no.=152
  remaining activity at 3.75 µM: 101%

## CC(N)Cc1c[nH]c2ccc(OCc3cccs3)cc12 (stereo not drawn) [BW 723C86]
[1]; Well no.=279
  remaining activity at 1.25 µM: 98.7%
[2]; Well no.=279
  remaining activity at 3.75 µM: 98.9%

## CC(/C=C/c1cccc(Oc2ccc(F)cc2)c1)N(O)C(N)=O (stereo not drawn) [BWB70C]
[1]; Well no.=221
  remaining activity at 1.25 µM: 103%
[2]; Well no.=221
  remaining activity at 3.75 µM: 102%

## O=C(NCCCNc1nc(Nc2cccc(NC(=O)N3CCCC3)c2)ncc1I)c1cccs1 [BX795]
[1]; Well no.=2931
  remaining activity at 1.25 µM: 99%
[2]; Well no.=2931
  remaining activity at 3.75 µM: 99.2%

## O=C(Nc1cccc(Nc2ncc(Br)c(NCCc3cnc[nH]3)n2)c1)N1CCCC1 [BX912]
[1]; Well no.=2979
  remaining activity at 1.25 µM: 95.2%
[2]; Well no.=2979
  remaining activity at 3.75 µM: 93.8%
